System: Phytophthora infestans
Experiment: whole plant or invertebrate
Assay type: in vivo
Conditions: in Solanum lycopersicum, 72 h, read-out: Efficacy in %, based on the untreated control

SMILES | pest or weed control at 100 ppm [%]
COC(=O)c1sccc1S(=O)(=O)n1c(C#N)nc2cc3c(cc21)OC(F)(F)C(F)(F)O3 | 82
Cc1nn(C)c(Cl)c1S(=O)(=O)n1c(C#N)nc2cc3c(cc21)OC(F)(F)O3 | 94
N#Cc1nc2cc3c(cc2n1S(=O)Oc1cccs1)OC(F)(F)O3 (stereo not drawn) | 94
COC(=O)c1csc(OS(=O)n2c(C#N)nc3cc4c(cc32)OC(F)(F)O4)c1C (stereo not drawn) | 97
Cc1noc(C)c1S(=O)(=O)n1c(C#N)nc2cc3c(cc21)OC(F)(F)O3 [drawing 354] | 100
Cc1noc(C)c1S(=O)(=O)n1c(C#N)nc2cc3c(cc21)OC(F)(F)C(F)(F)O3 [drawing 355] | 97
N#Cc1nc2cc3c(cc2n1S(=O)(=O)c1cccs1)OC(F)(F)C(F)(F)O3 [drawing 356] | 94
Cc1oncc1OS(=O)n1c(C#N)nc2cc3c(cc21)OC(F)(F)C(F)(F)O3 (stereo not drawn) [drawing 358] | 64
Cc1nn(C)c(Cl)c1S(=O)(=O)n1c(C#N)nc2cc3c(cc21)OC(F)(F)C(F)(F)O3 [drawing 359] | 94
Cc1oncc1OS(=O)n1c(C#N)nc2cc3c(cc21)OC(F)(F)O3 (stereo not drawn) [drawing 362] | 96
Cc1noc(C)c1S(=O)(=O)n1c(C#N)nc2c(Br)cc(C(F)(F)F)cc21 [drawing 363] | 74
Cc1noc(C)c1OS(=O)n1c(C#N)nc2cc3c(cc21)OC(F)(F)C(F)(F)O3 (stereo not drawn) [drawing 365] | 97

System: Venturia inaequalis
Experiment: Venturia test (apple)/protective
Assay type: in vivo
Conditions: apple plants, protective spray, active compound concentration of 10 ppm, evaluation 12 days after inoculation
Experimental: Venturia test (apple)/protective
Solvent: 4.7 parts by weight of acetone Emulsifier: 0.3 parts by weight of alkylaryl polyglycol ether
(§1) To produce a suitable preparation of active compound, 1 part by weight of active compound is mixed with the stated amounts of solvent and emulsifier, and the concentrate is diluted with water to the desired concentration.
To test for protective activity, young plants are sprayed with the preparation of active compound to run-off point. After the spray coating has dried on, the plants are inoculated with an aqueous suspension of conidia of the causative organism of apple scab (Venturia inaequalis) and then remain in an incubation cupboard at 20° C. and 100% relative atmospheric humidity for 1 day.
The plants are then placed in a greenhouse at 20° C. and a relative atmospheric humidity of about 70%.
Evaluation is carried out 12 days after the inoculation. 0% means an efficacy corresponding to that of the control, 100% means that no infestation is observed.

SMILES | Efficacy in %, based on the untreated control [%]
CN(C)OS(=O)n1c(C#N)nc2cc3c(cc21)OC(F)(F)C(F)(F)O3 (stereo not drawn) | 43
CN(C)S(=O)(=O)n1c(C#N)nc2cc3c(cc21)OC(F)(F)C(F)(F)O3 [comparison substance (A), 2-Cyano-1-dimethylaminosulphonyl-6,6,7,7-tetrafluoro-[1,4]dioxino[2,3-f]benzimidazole] | 43
CN(C)OS(=O)n1c(C#N)nc2cc3c(cc21)OC(F)(F)O3 (stereo not drawn) [drawing 350] | 0
Cc1noc(C)c1S(=O)(=O)n1c(C#N)nc2cc3c(cc21)OC(F)(F)O3 [drawing 351] | 81
Cc1noc(C)c1S(=O)(=O)n1c(C#N)nc2cc3c(cc21)OC(F)(F)C(F)(F)O3 [drawing 352] | 58
N#Cc1nc2cc3c(cc2n1S(=O)(=O)c1cccs1)OC(F)(F)C(F)(F)O3 [drawing 353] | 87

System: Plasmopara viticola
Experiment: Plasmopara test (vines)/protective
Assay type: in vivo
Conditions: Plasmopara viticola, 144 h, protective spray, active compound concentration of 100 ppm, evaluation 6 days after inoculation, read-out: Efficacy in %, based on the untreated control
Experimental: Plasmopara test (vines)/protective
Solvent: 4.7 parts by weight of acetone Emulsifier: 0.3 parts by weight of alkyl-aryl polyglycol ether
as §1
To test for protective activity, young plants are sprayed with the preparation of active compound to run-off point. After the spray coating has dried on, the plants are inoculated with an aqueous suspension of spores of Plasmopara viticola and then remain in a humidity chamber at 20-22° C. and 100% relative atmospheric humidity for 1 day. The plants are subsequently placed in a greenhouse at 21° C. and 90% atmospheric humidity for […]. The plants are then moistened and placed in a humidity chamber for 1 day.
Evaluation is carried out 6 days after the inoculation. 0% means an efficacy corresponding to that of the control, whereas an efficacy of 100% means that no infestation is observed.

SMILES | pest or weed control at 100 ppm [%]
Cc1noc(C)c1OS(=O)N1C(C#N)=NC2C=C3OC(F)(F)OC3=CC21 (stereo not drawn) | 100
N#Cc1nc2cc3c(cc2n1S(=O)Oc1cccs1)OC(F)(F)C(F)(F)O3 (stereo not drawn) | 80
COC(=O)c1sccc1OS(=O)n1c(C#N)nc2cc3c(cc21)OC(F)(F)C(F)(F)O3 (stereo not drawn) | 100
Cc1noc(C)c1OS(=O)n1c(C#N)nc2cc3c(cc21)OC(F)(F)C(F)(F)O3 (stereo not drawn) [drawing 367] | 100
Cc1oncc1OS(=O)n1c(C#N)nc2cc3c(cc21)OC(F)(F)C(F)(F)O3 (stereo not drawn) [drawing 370] | 100
Cc1nn(C)c(Cl)c1S(=O)(=O)n1c(C#N)nc2cc3c(cc21)OC(F)(F)C(F)(F)O3 [drawing 371] | 74
Cc1oncc1OS(=O)n1c(C#N)nc2cc3c(cc21)OC(F)(F)O3 (stereo not drawn) [drawing 372] | 100
Cc1noc(C)c1S(=O)(=O)n1c(C#N)nc2c(Br)cc(C(F)(F)F)cc21 [drawing 373] | 95

Same assay, conditions: protective spray, active compound concentration of 100 ppm, evaluation 6 days after inoculation

SMILES | Efficacy in %, based on the untreated control [%]
Cc1noc(C)c1OS(=O)n1c(C#N)nc2cc3c(cc21)OC(F)(F)C(F)(F)O3 (stereo not drawn) [drawing 374] | 100
